According to patent US20250154150A1, “SUBSTITUTED FUSED RING COMPOUND, PHARMACEUTICAL COMPOSITION THEREOF, PREPARATION METHOD THEREFOR AND USES THEREOF” (SUZHOU YABAO PHARMACEUTICAL R&D CO., LTD., priority 2022, published 2025):

Tests used:
[1] = biological target: LRRK2 G2019S (Homo sapiens (Human), UniProt Q5S007, G2019S); assay: Kinase inhibition assay (ADP-Glo, LRRKtide substrate); format: biochemical; conditions: LRRK2 G2019S protein, room temperature
Protocol: Kinase LRRK2 G2019S protein was derived from Carna, LRRKtide was derived from Signalchem, ATP was derived from Promega, and DMSO was derived from Sigma.
All assays were performed at room temperature. The test compounds were dissolved and diluted, and then added to a 384-well plate. 2.5 μL of 2× kinase reaction buffer was added, and the mixture was centrifuged. 2.5 μL of a mixture of 2× substrate and ATP was added, and the mixture was centrifuged. 4 μL of ADP-Glo reagent was added, and the mixture was incubated at room temperature for 40 min. 8 μL of […] was added, and the mixture was incubated at room temperature for 40 min. Then, the data were read using the Envision 2104 multi-label Reader.

[2] = test system: LRRK2; assay: In vivo efficacy, oral administration: LRRK2 phosphorylation (pS935-LRRK2/LRRK2) in brain tissue by Western blot; set-up: species or system LRRK2-G2019S mice
Excerpt: 1. Objective: The study aims to determine the in vivo efficacy of compound 527 by observing the inhibition effect of compound 527 on the phosphorylation level of LRRK2 in the brains of G2019S mutant LRRK2 gene knock-in mice following oral administration.
(1) Animals: B6.Cg-Tg(Lrrk2*G2019S)2Yue/J transgenic mice were purchased from Jackson Laboratory. The mice were bred with C57BL/6J mice to produce LRRK2 heterozygote mice carrying the G2019S mutation (LRRK2-G2019S mice). The mice included an equal number of male and female individuals, with body weights ranging from 16-20 g and ages between 15-17 weeks.
(2) Grouping and administration: The mice were randomly divided into 5 experimental groups based on their body weights. Each group consisted of 8 animals, with 4 males and 4 females. The specific administration for each experimental group is detailed in the following Table 1. Group G1 served as the vehicle control group. For group G2 to group G5, compound 527 was administered at doses of 1 mg/kg, 3 mg/kg, 10 mg/kg, and 30 mg/kg, respectively.
(3) Intracerebral LRRK2 activity assay: One hour after administration, the animals were euthanized using CO2. The brain tissues were collected, rapidly frozen in liquid nitrogen, and then cryopreserved at −80 C until subsequent experiments. The brain tissues were homogenized in an RIPA buffer containing cOmplete™ protease inhibitor mixture (Roche, 04693124001) and phosphatase inhibitor mixture 2 (sigma, R^0278). Protein quantification was performed using the BCA method. The phosphorylation level of LRRK2 at pS935 site (primary antibody Anti-LRRK2 (phospho S935) antibody, abcam, ab133450), and the total LRRK2 level (primary antibody Anti-LRRK2 antibody, Abcam, ab33518) were detected by Western blot method. The activity level of LRRK2 in the brain was represented by the phosphorylation level at S935 site of LRRK2, i.e., the ratio of pS935-LRRK2 to total LRRK2 (pS935-LRRK2/LRRK2).

[3] = biological target: LRRK2 (Homo sapiens (Human), UniProt Q5S007); assay: HEK293 cell kinase inhibition assay (NanoBRET); format: cell-based; conditions: HEK293 cells
Protocol: (§1) HEK293 cells were cultured, and collected by adding trypsin. Culture medium was added, and the cell density was adjusted to 2×10^5/mL. Liposome-DNA complexes were constructed and mixed with HEK293 cells at a ratio of 1:20. The mixture was added to a 384-well plate, and incubated at 37° C. for 20-30 h. A mixed solution of enzyme substrate and the test compound was added, and the mixture was incubated at room temperature for 2-3 min. NanoBRET reagent (Promega) was added, and bioluminescence was measured within 10 min using the microplate reader (Envision 2104) at 450 nm for the donor luciferase protein (donor) and 610 nm for the acceptor fluorescent group (acceptor). The BRET ratio for the test compounds was calculated using the following formula, including a background correction option.
(§2) [formula] • Acceptorsample: 610 nm fluorescence with the test compound; • Donorsample: 450 nm fluorescence with the test compound; • Acceptorno-tracer control: 610 nm fluorescence of background (without the test compound); • Donorno-tracer control: 450 nm fluorescence of background (without the test compound)
(§3) The inhibitory activity of the test compounds on cellular LRRK2 enzyme was calculated by the following formula: […]
(§4) The IC50 values of the test compounds against cellular LRRK2 enzyme were calculated using Graphpad software. Non-linear regression fitting (dose-effect−variable slope method) was performed on the percentage inhibition rate versus logarithmic concentration curve of the compounds.
(§5) [formula] • X: logarithmic inhibitor concentration; Y: percentage inhibition rate; Bottom: a minimum value; Top: a maximum value; Hill Slope: hill slope

[4] = biological target: LRRK2-2019S (Homo sapiens (Human), UniProt Q5S007, G2019S); assay: HEK293 cell kinase inhibition assay (NanoBRET); format: cell-based; conditions: HEK293 cells
Protocol: as §1, §2, §3, §4, §5

[5] = biological target: LRRK2-R1441C (Homo sapiens (Human), UniProt Q5S007, R1441C); assay: HEK293 cell kinase inhibition assay (NanoBRET); format: cell-based; conditions: HEK293 cells
Protocol: as §1, §2, §3, §4, §5

[6] = LRRK2-G2019S mice, oral gavage, single dose, brain collected 1 h after administration

Chain of LRRK2 G2019S (Q5S007 whole entry G2019S): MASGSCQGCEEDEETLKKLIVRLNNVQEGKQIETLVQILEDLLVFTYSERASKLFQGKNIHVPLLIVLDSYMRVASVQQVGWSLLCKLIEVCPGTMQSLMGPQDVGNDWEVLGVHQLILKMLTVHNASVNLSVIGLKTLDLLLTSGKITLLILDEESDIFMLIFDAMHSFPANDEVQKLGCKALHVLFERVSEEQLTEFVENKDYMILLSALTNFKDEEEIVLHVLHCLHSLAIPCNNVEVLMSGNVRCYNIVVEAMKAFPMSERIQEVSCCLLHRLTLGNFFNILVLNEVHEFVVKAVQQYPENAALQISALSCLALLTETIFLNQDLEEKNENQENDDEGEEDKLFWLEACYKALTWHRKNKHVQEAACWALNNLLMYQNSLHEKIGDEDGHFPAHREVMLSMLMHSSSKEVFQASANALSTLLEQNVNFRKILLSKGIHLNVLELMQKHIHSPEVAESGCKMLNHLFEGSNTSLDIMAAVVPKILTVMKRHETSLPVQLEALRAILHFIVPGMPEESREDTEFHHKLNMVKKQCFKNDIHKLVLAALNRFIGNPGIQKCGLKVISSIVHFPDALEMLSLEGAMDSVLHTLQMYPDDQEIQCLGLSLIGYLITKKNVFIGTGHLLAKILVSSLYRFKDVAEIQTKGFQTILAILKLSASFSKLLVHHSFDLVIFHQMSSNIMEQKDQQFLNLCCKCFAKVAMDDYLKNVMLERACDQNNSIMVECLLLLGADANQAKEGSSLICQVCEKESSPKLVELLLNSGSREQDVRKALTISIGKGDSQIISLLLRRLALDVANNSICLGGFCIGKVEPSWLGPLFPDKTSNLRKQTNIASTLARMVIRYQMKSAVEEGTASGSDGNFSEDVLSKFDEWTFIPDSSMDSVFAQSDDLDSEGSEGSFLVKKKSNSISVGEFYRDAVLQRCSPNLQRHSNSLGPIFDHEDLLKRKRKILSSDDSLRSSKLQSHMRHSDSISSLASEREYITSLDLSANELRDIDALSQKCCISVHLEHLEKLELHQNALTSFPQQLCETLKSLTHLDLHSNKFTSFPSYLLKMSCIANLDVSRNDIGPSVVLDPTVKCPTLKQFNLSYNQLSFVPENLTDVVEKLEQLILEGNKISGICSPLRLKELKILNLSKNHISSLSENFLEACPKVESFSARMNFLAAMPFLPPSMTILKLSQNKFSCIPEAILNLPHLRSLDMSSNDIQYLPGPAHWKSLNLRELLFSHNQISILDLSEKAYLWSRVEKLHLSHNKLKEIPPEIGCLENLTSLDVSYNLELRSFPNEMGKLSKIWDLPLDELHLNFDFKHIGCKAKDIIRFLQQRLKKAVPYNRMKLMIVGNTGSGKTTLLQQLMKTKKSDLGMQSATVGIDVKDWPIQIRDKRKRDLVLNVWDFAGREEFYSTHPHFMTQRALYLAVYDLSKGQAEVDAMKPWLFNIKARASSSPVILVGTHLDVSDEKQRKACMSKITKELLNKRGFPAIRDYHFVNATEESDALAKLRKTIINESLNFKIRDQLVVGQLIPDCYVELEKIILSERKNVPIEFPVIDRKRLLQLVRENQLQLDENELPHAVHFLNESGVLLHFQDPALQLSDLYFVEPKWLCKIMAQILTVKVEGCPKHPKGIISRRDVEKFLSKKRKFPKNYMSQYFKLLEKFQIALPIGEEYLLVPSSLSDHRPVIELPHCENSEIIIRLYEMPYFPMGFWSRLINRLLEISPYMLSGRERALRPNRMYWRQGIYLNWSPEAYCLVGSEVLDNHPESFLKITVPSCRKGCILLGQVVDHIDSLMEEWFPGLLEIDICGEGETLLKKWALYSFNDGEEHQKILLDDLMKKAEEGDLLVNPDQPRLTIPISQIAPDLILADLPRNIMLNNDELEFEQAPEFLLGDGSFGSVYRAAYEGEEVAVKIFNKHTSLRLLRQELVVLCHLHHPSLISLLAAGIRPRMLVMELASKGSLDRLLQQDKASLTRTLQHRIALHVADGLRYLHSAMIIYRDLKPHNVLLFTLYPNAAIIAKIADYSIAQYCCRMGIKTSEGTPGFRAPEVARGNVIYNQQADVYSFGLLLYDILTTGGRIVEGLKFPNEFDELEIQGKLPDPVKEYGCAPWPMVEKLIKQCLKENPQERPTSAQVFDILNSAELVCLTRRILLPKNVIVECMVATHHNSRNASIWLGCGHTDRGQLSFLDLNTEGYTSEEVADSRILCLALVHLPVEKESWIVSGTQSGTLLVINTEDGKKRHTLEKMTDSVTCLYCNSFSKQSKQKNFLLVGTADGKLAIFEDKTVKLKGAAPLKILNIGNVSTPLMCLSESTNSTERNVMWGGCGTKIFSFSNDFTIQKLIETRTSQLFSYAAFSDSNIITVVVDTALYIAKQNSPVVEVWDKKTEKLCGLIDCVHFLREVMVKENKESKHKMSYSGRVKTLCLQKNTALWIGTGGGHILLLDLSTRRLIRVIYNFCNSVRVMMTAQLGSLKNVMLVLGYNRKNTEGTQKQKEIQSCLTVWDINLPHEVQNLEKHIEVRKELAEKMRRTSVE
Chain of LRRK2 (Homo sapiens (Human), UniProt Q5S007) (Q5S007 whole entry): as the sequence (Q5S007 whole entry G2019S) above, with S2019G counted along it
Chain of LRRK2-R1441C (Q5S007 whole entry R1441C): as the sequence (Q5S007 whole entry G2019S) above, with R1441C, S2019G counted along it
Chain of LRRK2-2019S (Q5S007 whole entry G2019S): as the sequence (Q5S007 whole entry G2019S) above

Row | SMILES | IC50 [1] | also measured
1 | C[C@@H]1CN(c2cc(-c3n[nH]c4ccnc(N[C@H](C)C(F)(F)F)c34)ncn2)C[C@H](C)O1 [Compound 527] | 1.2 nM | inhibition of the phosphorylation of LRRK2 in the brain tissues ([2]; 30 mg/kg oral gavage, 1 h, LRRK2-G2019S mice, stated as the definition of the maximum effective dose): 60%; effective dose for inhibiting the phosphorylation of LRRK2 in the brain tissues [2, 6]: 10 mg/kg; maximum effective dose (defined as 60% inhibition of the phosphorylation of LRRK2) [2, 6]: 30 mg/kg; human equivalent dose corresponding to the effective dose ([2]; calculated for a body weight of 70 kg, from 10 mg/kg in mice): 57 mg; human equivalent dose corresponding to the maximum effective dose ([2]; calculated for a body weight of 70 kg, from 30 mg/kg in mice): 171 mg; IC50 [3]: 24.7 nM; IC50 [4]: 16.3 nM; IC50 [5]: 45.9 nM
2 | C[C@@H]1CN(c2cc(-c3n[nH]c4ccnc(N[C@@H](C)C(F)(F)F)c34)ncn2)C[C@H](C)O1 [Compound 528] | 1.6 nM | 
3 | N#CC1(c2cc(-c3n[nH]c4ccnc(NCC(F)(F)F)c34)ncn2)CCC1 [Compound 523, 1-(6-(4-((2,2,2-trifluoroethyl)amino)-1H-pyrazolo[4,3-c]pyridin-3-yl)pyrimidin-4-yl)cyclobutane-1-carbonitrile] | 2.4 nM | 
4 | C[C@@H]1CN(c2cc(-c3n[nH]c4ccnc(NC5(C)CC5)c34)ncn2)C[C@H](C)O1 [Compound 391] | 9.5 nM | 
5 | CC(C)n1cc(-c2n[nH]c3ccnc(NCC(F)(F)F)c23)cn1 [Compound 515] | 27.7 nM | 
6 | C[C@@H]1C[C@H](Nc2nccc3[nH]nc(-c4cc(N5C[C@@H](C)O[C@@H](C)C5)ncn4)c23)C[C@H](C)O1 [Compound 407, 3-(6-((2S,6R)-2,6-dimethylmorpholinyl)pyrimidin-4-yl)-N-((2R,4R,6S)-2,6-dimethyltetrahydro-2H-pyran-4-yl)-1H-pyrazolo[4,3-c]pyridine-4-amine] | 2.2 nM | 
7 | FC(F)(F)CNc1nccc2[nH]nc(-c3ccccn3)c12 [Control compound, reference compound] | 12 nM | 
8 | FC(F)(F)CNc1nccc2[nH]nc(-c3cc(N4C5CCC4COC5)ncn3)c12 [Compound 520] | 4.8 nM | 
9 | C[C@H]1CN(c2cc(-c3n[nH]c4ccnc(N[C@H](C)C(F)(F)F)c34)ncn2)C[C@H](C)O1 [Compound 561] | 1.3 nM | 

Further lines, with some results ahead:

Row | IC50 [1] | SMILES | also measured
10 | 1.9 nM | C[C@@H]1C[C@H](Nc2nccc3[nH]nc(-c4cc(N5C[C@H]6C[C@@H]5CO6)ncn4)c23)C[C@H](C)O1 [Compound 425] | 
11 | 36.5 nM | C[C@@H]1C[C@@H](Nc2nccc3[nH]nc(-c4cc(N5C[C@H]6C[C@@H]5CO6)ncn4)c23)C[C@H](C)O1 [Compound 440] | 
12 | 3.7 nM | C[C@@H]1C[C@H](Nc2nccc3[nH]nc(-c4cc(N5C[C@@H]6C[C@H]5CO6)ncn4)c23)C[C@H](C)O1 [Compound 424] | 
13 | 3.1 nM | FC(F)(F)CNc1nccc2[nH]nc(-c3cc(N4C[C@@H]5C[C@H]4CO5)ncn3)c12 [Compound 486] | 
14 | 5.1 nM | O[C@@H]1C[C@H](O)CN(c2cc(-c3n[nH]c4ccnc(NCC(F)(F)F)c34)ncn2)C1 [Compound 526, (3S,5R)-1-(6-(4-((2,2,2-trifluoroethyl)amino)-1H-pyrazolo[4,3-c]pyridin-3-yl)pyrimidin-4-yl)piperidine-3,5-diol] | 
15 | 2.8 nM | C[C@@H]1CN(c2cc(-c3n[nH]c4ccnc(NCC(F)(F)F)c34)ncn2)C[C@H](C)O1 [Compound 447] | IC50 [3]: 247 nM; IC50 [4]: 97.5 nM; IC50 [5]: 297 nM
16 | 2.4 nM | FC(F)(F)CNc1nccc2[nH]nc(-c3cc(N4C[C@H]5C[C@@H]4CO5)ncn3)c12 [Compound 487] | 
